Measurements: patent publication US10344064B2, “Engineered potent cytotoxic stapled BH3 peptides” (The Trustees of Princeton University, priority 2012, dated 2019)
Entries after “also recorded” stand apart in the source; their conditions may differ. Like-named read-outs stand apart in the source and are kept apart here. Bridges are numbered along the chain shown (N, C = ends). Where no end group is shown, it is not given here. [ ]: non-standard residue; d: D form. S5 = C=CCCC[C@](C)(N)C(=O)O

Legend:
[1] = system: HeLa, PC3, MCF7 and MDA231 cell lines; test: MTT cytotoxicity assay of stapled peptides, all four cancer cell lines; format: cell-based, human; details: for cytotoxicity against the four cancer cell lines (in words): stapled pseudo-wild-type peptide
Experimental: (§1) HeLa, PC3, MCF7 and MDA231 cell lines were used to determine IC50 of each stapled peptide. All cells were cultured at 37° C. supplemented with 5% CO2. HeLa cells and PC3 cells were maintained in DMEM and RPMI 1640 media, respectively, supplemented with 10% FBS, 50 units/mL penicillin, and 50 μg/mL streptomycin. MCF7 cells were maintained in DME/F12 media with 2% FBS, 10 μg/ml insulin, and 50 μg/ml gentamicin. MDA-MB-231 cells were maintained in DME/F12 media supplemented with 10% FBS, 10 μg/ml insulin, and 50 μg/ml gentamicin. The cytotoxicity of stapled peptides was determined using an MTT (3-(4,5-Dimethylthiazol-2-yl)-2,5-diphenyltetrazolium bromide assay (Sigma). Cells were plated at a density of 1.5×10^4 cells per well in a 96-well plate. After 24 hours, the medium was replaced with serum-free medium containing stapled peptides. Serum was added after 4 hours, and cells were incubated for an additional 44 hours. After this incubation, 0.5 mg/ml of MTT was added to each well and incubated for 4 hours. The medium was aspirated and 200 μL of dimethyl sulfoxide (DMSO) was added to each well to solubilize the formazan crystals. The absorbance was measured at 570 nm with 690 nm as an internal reference using a GloMax-Multi Detection System (Promega). Experiments were performed three times independently with biological replicates. A four-parameter model was used to fit the experimental data and extract the IC50 value from killing assays, where log [ ] was the log value of the stapled peptide concentration. [formula] During fitting, “top” was always fixed at 100% viability, while “bottom,” log [IC50] and Hill slope were allowed to vary. In all cases, “bottom” came out to be 0. The R^2 values of all fits were above 0.9, while the majority was above 0.95.

[2] = molecular target: T1, Bcl-xL (Homo sapiens, UniProt Q07817); test: Apparent Kd by E. coli surface display and flow cytometry, Bcl-xL; format: binding; details: for binding to Bcl-xL (in words): compared with wild-type peptide; for increase in apparent affinity toward Bcl-xL: relative to wild-type Bim 14-mer
T1 construct: made in house; host or cells: E. coli BL21
Experimental: (§2) All binding assays were performed using MC1061 strain. Briefly, a 5 mL culture of a library sample or individual variant was grown to OD600˜0.6, and induced with arabinose (0.2%) at RT for 2.5 hours. Cells were pelleted (1 mL culture, 6000 rpm, 5 min) and resuspended in 1 mL PBS. A portion of the cell suspension (50 μL) was mixed with the desired concentration of pro-survival protein to a total volume of 500 μL. The mixture was allowed to rotate at room temperature for 1 hour for equilibrium binding. The cells were pelleted again (6000 rpm, 20 min), resuspended with 100 μL of 50 nM streptavidin-phycoerythrin (SAPE), and incubated on ice in the dark for 30 min. After a final centrifugation, the cell pellets were stored on ice and resuspended in 2 mL of PBS for flow cytometry measurements. A Partec CyFlow ML Flow Cytometer equipped with a 488 nm laser was used to analyze the cells. A FACSVantage SE cell sorter was used for cell sorting in single cell mode.
(§3) A two parameter model was used to extract apparent binding affinity (Kd) from flow cytometry binding experiments.

[3] = molecular target: T2, Bcl-2 (Homo sapiens, UniProt P10415); test: Apparent Kd by E. coli surface display and flow cytometry, Bcl-2; format: binding; details: compared with wild-type peptide
T2 construct: made in house; host or cells: E. coli BL21
Experimental: as §2, §3

[4] = molecular target: T3, Bcl-w (Homo sapiens, UniProt Q92843); test: Apparent Kd by E. coli surface display and flow cytometry, Bcl-w; format: binding; details: compared with wild-type peptide
T3 construct: made in house; host or cells: E. coli BL21
T3 sequence (Q92843 1-193): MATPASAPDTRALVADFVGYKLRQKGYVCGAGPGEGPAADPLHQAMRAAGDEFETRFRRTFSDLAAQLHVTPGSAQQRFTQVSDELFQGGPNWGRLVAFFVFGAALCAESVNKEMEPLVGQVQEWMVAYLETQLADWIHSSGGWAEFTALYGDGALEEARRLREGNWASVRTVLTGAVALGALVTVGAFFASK
Experimental: as §2, §3

[5] = molecular target: T4, Mcl-1 (Homo sapiens, UniProt Q07820); test: Apparent Kd by E. coli surface display and flow cytometry, Mcl-1; format: binding
T4 construct: made in house; host or cells: E. coli BL21
Experimental: as §2, §3

[6] = system: A1; test: Apparent Kd by E. coli surface display and flow cytometry, A1; format: binding; details: for Kd: Table 3, apparent Kd, unstapled 14-mer displayed on E. coli (eCPX); for affinity improvement toward A1: relative to wild-type Bim 14-mer
Experimental: as §2, §3

[7] = system: HeLa cells; format: cell-based, human
Experimental: as §1

[8] = system: MDA231 cells; format: cell-based, human
Experimental: as §1

[9] = system: PC3 cells; format: cell-based, human
Experimental: as §1

[10] = system: MCF7 cells; test: MTT cytotoxicity assay of stapled peptides, MCF7; format: cell-based, human; details: for cytotoxicity toward MCF7 cells (in words): stapled peptides, at the concentrations tested
Experimental: as §1

[11] = system: HeLa cells; test: Peptide uptake by fluorescence microscopy; format: cell-based, human; details: 5 μM, imaged after 2.5 hours
Experimental: (§4) To study the uptake of fluorescein-labeled M2-4 stapled peptide (Fl-M2-4), HeLa cells were cultured in DMEM with 10% FBS and antibiotics as described above. The peptide was added to a final concentration of 5 μM in fresh DMEM without serum supplementation. Cellular uptake of FI-M2-4 was visualized using a Hamamatsu Orca CCD camera attached to a Nikon Eclipse Ti microscope after 2.5 hours of incubation. Cells were fixed using 4% paraformaldehyde and counterstained with Hoechst 33342. For the TUNEL assay, HeLa cells were plated on a fibronectin-treated coverslip and incubated with 5 μM unlabeled M2-4 peptide for 5 hours. The cells were then fixed using 4% paraformaldehyde and permeabilized with 0.25% Triton X-100 in PBS. The TUNEL assay (Click-it Alexa-Fluor 594, Invitrogen) was carried out according to the manufacturer's recommendations including counterstaining cell nuclei with Hoechst 33342. Images were acquired using a Hamamatsu Orca CCD camera attached to a Nikon Eclipse Ti microscope. All images were processed with ImageJ software.

[12] = system: HeLa cells; test: TUNEL assay; format: cell-based, human; details: 5 μM, 5 hours
Experimental: as §4

[13] = Table 2, apparent Kd, unstapled 14-mer displayed on E. coli (eCPX), read-out: Kd vs. Mcl-1
[14] = Table 3, apparent Kd, unstapled 14-mer displayed on E. coli (eCPX), read-out: Kd (nM) Mcl-1

T1 sequence (Q07817 whole entry): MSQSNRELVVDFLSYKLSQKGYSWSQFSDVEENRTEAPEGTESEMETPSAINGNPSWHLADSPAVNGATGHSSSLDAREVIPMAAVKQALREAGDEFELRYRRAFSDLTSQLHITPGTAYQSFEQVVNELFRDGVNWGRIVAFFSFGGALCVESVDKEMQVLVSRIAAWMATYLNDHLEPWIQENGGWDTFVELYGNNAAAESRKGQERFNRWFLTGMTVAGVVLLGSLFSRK
T4 sequence (Q07820 whole entry): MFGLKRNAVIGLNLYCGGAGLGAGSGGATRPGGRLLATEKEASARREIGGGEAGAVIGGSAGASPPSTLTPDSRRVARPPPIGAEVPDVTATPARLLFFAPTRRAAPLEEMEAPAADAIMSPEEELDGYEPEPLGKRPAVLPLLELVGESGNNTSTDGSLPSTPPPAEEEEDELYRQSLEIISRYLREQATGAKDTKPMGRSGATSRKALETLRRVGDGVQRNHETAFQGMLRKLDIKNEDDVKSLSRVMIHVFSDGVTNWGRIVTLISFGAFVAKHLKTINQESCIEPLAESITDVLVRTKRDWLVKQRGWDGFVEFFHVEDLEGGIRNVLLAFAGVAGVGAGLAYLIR
T2 sequence (P10415 whole entry): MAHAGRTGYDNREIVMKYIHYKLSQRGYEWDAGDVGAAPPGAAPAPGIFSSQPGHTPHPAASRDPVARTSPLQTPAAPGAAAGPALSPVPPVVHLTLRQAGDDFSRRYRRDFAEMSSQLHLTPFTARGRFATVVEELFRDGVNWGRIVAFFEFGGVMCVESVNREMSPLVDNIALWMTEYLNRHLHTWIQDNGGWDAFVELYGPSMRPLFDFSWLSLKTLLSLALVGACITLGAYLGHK

CC[C@H](C)[C@H](NC(=O)[C@@H](N)Cc1c[nH]c2ccccc12)C(=O)N[C@@H](C)C(=O)N[C@@H](CCC(N)=O)C(=O)N[C@@H](CCC(N)=O)C(=O)N[C@@H](CC(C)C)C(=O)N[C@@H](CCCNC(=N)N)C(=O)N[C@@]1(C)CCCC=CCCC[C@@](C)(C(=O)N[C@@H](Cc2ccccc2)C(=O)N[C@@H](CC(N)=O)C(N)=O)NC(=O)[C@H](CC(=O)O)NC(=O)CNC(=O)[C@H]([C@@H](C)CC)NC1=O (single isomer, unassigned) [stapled E151Q]
IC50 [1]: 10 to 150 µM | cytotoxicity against the four cancer cell lines (in words) [1]: only modest cytotoxicity; also recorded: measurable but modest cytotoxicity | cytotoxicity against the four cancer cell lines (in words) ([1]; listed as pseudo-wild-type Bim peptide): only modest cytotoxicity

CC[C@H](C)[C@@H]1NC(=O)[C@@](C)(NC(=O)[C@H](CCCNC(=N)N)NC(=O)[C@H](CC(C)C)NC(=O)[C@H](CC(C)C)NC(=O)[C@H](CCC(N)=O)NC(=O)[C@H](C)NC(=O)[C@@H](NC(=O)[C@@H](N)Cc2c[nH]c3ccccc23)C(C)C)CCCC=CCCC[C@@](C)(C(=O)N[C@H](C(=O)N[C@@H](CC(N)=O)C(N)=O)C(C)C)NC(=O)[C@H](CC(=O)O)NC(=O)CNC1=O [M2-2, Trp-Val-Ala-Gln-Leu-Leu-Arg-Arg-Ile-Gly-Asp-Glu-Val-Asn]
binding to Bcl-xL (in words) [2]: lost the ability to bind | binding to Bcl-2 (in words) [3]: lost the ability to bind | binding to Bcl-w (in words) [4]: lost the ability to bind | Kd [5, 13]: 5.8 nM | Kd [5, 14]: 5.8 nM | Kd ([5]; displayed unstapled 14-mer, read-out: apparent Kd against Mcl-1): 5.8 nM | increase in apparent affinity toward Mcl-1 ([5]; relative to wild-type Bim 14-mer): 6 fold | Kd [6]: 9.99 nM | affinity improvement toward A1 [6]: 3 fold | IC50 [7]: 6.1 µM | IC50 [8]: 3.7 µM | IC50 [9]: 4.7 µM | IC50 [10]: 5.7 µM | IC50 [1]: < 6.2 µM

WIAQELRRIGDEFN [WT, reference compound]
Kd [6]: 26.9 nM

CC(C)C[C@H](NC(=O)[C@H](Cc1c[nH]c2ccccc12)NC(=O)[C@H](CCC(N)=O)NC(=O)[C@H](C)NC(=O)[C@@H](NC(=O)[C@@H](N)Cc1c[nH]c2ccccc12)C(C)C)C(=O)N[C@@H](CCCNC(=N)N)C(=O)N[C@@]1(C)CCCC=CCCC[C@@](C)(C(=O)N[C@@H](Cc2ccccc2)C(=O)N[C@@H](CC(N)=O)C(N)=O)NC(=O)[C@H](CC(=O)O)NC(=O)CNC(=O)[C@H](Cc2c[nH]c3ccccc23)NC1=O [X2-3, Trp-Val-Ala-Gln-Trp-Leu-Arg-Arg-Trp-Gly-Asp-Glu-Phe-Asn]
increase in apparent affinity toward Bcl-xL [2]: 25 fold | Kd [6]: 30.2 nM | IC50 [7]: 51.3 µM | IC50 [8]: 10.5 µM | IC50 [9]: 17.9 µM | cytotoxicity toward MCF7 cells (in words) [10]: no cytotoxicity

stapled M2-4: stapled version of M2-4; positions 8 and 12 replaced by olefinic amino acids and crosslinked (WLAQLLR[S5]IGD[S5]IN-NH2; staple 8-12)
cellular uptake (in words) [11]: taken up | apoptosis / DNA fragmentation by TUNEL (in words) [12]: DNA fragmentation | apoptosis / DNA fragmentation by TUNEL (in words) ([12]; listed as M2-4 stapled peptide): causes apoptosis

CC[C@H](C)[C@H](NC(=O)[C@@H](N)Cc1c[nH]c2ccccc12)C(=O)N[C@@H](C)C(=O)N[C@@H](CCC(N)=O)C(=O)N[C@@H](CCC(N)=O)C(=O)N[C@@H](CC(C)C)C(=O)N[C@@H](CCCNC(=N)N)C(=O)N[C@@]1(C)CCCC=CCCC[C@@](C)(C(=O)N[C@@H](Cc2ccccc2)C(=O)N[C@@H](CC(N)=O)C(N)=O)NC(=O)[C@H](CC(=O)O)NC(=O)CNC(=O)[C@H]([C@@H](C)CC)NC1=O (single isomer, unassigned) [E151Q]
increase in apparent affinity toward Bcl-xL [2]: 5 fold | Kd [6]: 29.6 nM | IC50 [7]: 150 µM | IC50 [8]: 20 µM | IC50 [9]: 9.5 µM | IC50 [10]: 35.7 µM

CC[C@H](C)[C@@H]1NC(=O)[C@@](C)(NC(=O)[C@H](CCCNC(=N)N)NC(=O)[C@H](CC(C)C)NC(=O)[C@H](CC(C)C)NC(=O)[C@H](CCC(N)=O)NC(=O)[C@H](C)NC(=O)[C@H](CC(C)C)NC(=O)[C@@H](N)Cc2c[nH]c3ccccc23)CCCC=CCCC[C@@](C)(C(=O)N[C@H](C(=O)N[C@@H](CC(N)=O)C(N)=O)[C@@H](C)CC)NC(=O)[C@H](CC(=O)O)NC(=O)CNC1=O [M2-4, Trp-Leu-Ala-Gln-Leu-Leu-Arg-Arg-Ile-Gly-Asp-Glu-Ile-Asn]
binding to Bcl-xL (in words) [2]: maintaining wild-type affinity | binding to Bcl-2 (in words) [3]: maintaining wild-type affinity | binding to Bcl-w (in words) [4]: maintaining wild-type affinity | Kd [5, 13]: 9.85 nM | Kd [5, 14]: 9.85 nM | Kd [6]: 4.18 nM | affinity improvement toward A1 [6]: 6 fold | decrease in IC50 relative to the pseudo-wild-type peptide ([7]; HeLa cells, stapled peptides): ~150 fold | IC50 [1]: < 6.2 µM

CC(C)C[C@H](NC(=O)[C@H](CCC(N)=O)NC(=O)[C@H](C)NC(=O)[C@H](CC(C)C)NC(=O)[C@@H](N)Cc1c[nH]c2ccccc12)C(=O)N[C@@H](CC(C)C)C(=O)N[C@@H](CCCNC(=N)N)C(=O)N[C@@]1(C)CCCC=CCCC[C@@](C)(C(=O)N[C@@H](Cc2ccccc2)C(=O)N[C@@H](CC(N)=O)C(N)=O)NC(=O)[C@H](CC(=O)O)NC(=O)CNC(=O)[C@H](Cc2ccc(O)cc2)NC1=O [X2-8, Trp-Leu-Ala-Gln-Leu-Leu-Arg-Arg-Tyr-Gly-Asp-Glu-Phe-Asn]
Kd [6]: 40.5 nM | IC50 [7]: 55 µM | IC50 [8]: 18.3 µM | IC50 [9]: 14.9 µM | cytotoxicity toward MCF7 cells (in words) [10]: no cytotoxicity
